Laboratory results taken from patent US8034353B2, “Peptide vaccine for inducing the production of anti-amyloid β-peptide antibody” (priority 2006, dated 2011).
Where two headings read alike, the source gives them in different places.

Assays:
[1] = tested on: T-cell; type: cell-based, mice
[2] = tested on: T-cell; type: cell-based, human
[3] = tested on: Aβ (SEQ ID NO:2); assay: Anti-Aβ antibody titer in serum of transnasally vaccinated mice, ELISA (Experiment 1); type: in vivo, BALB/c female mice; conditions: BALB/c mice, transnasal 50 μg/mouse/once, four times at two weeks interval, serum one week after last administration
Excerpt: The results are in Table 1.

Row | Substance | Induction of blastogenesis of the T-cell [1] | Induction of blastogenesis of the T-cell [2] | Antibody titer Anti-Aβ antibody [3]
1 | AYNFVESIINLFQVVHNSYN (diphtheria toxoid (partial sequence)) [DTL] | inducing the blastogenesis of the T-cell | inducing the blastogenesis of the T-cell | –
2 | QYIVNEDKFQILYNSIMYGF (tetanus toxoid (partial sequence)) [TetT3L] | inducing the blastogenesis of the T-cell | inducing the blastogenesis of the T-cell | –
3 | RGD-Gag-KK-Aβ(1-11): RGD motif, Gag T-cell epitope (HIV-1 Gag 298-312), KK linker, Aβ(1-11) B-cell epitope (RGDKRWIILGLNKIVRMYKKDAEFRHDSGYE; peptide for the production of anti-amyloid beta antibody) | – | – | 14.9
4 | RGD-Gag-KK-Aβ(1-13): RGD motif, Gag T-cell epitope (HIV-1 Gag 298-312), KK linker, Aβ(1-13) B-cell epitope (RGDKRWIILGLNKIVRMYKKDAEFRHDSGYEVH; peptide for the production of anti-amyloid beta antibody) | – | – | 32
5 | RGD-Gag-KK-Aβ(3-11): RGD motif, Gag T-cell epitope (HIV-1 Gag 298-312), KK linker, Aβ(3-11) B-cell epitope (RGDKRWIILGLNKIVRMYKKEFRHDSGYE; peptide for the production of anti-amyloid beta antibody) | – | – | 22.6
